Molecules are shown by their SMILES.

Assay type in all cases: biochemical
Experiment [1] has as its target T1, ENPP1 (Homo sapiens, UniProt P22413).
T1 sequence (P22413 1-925): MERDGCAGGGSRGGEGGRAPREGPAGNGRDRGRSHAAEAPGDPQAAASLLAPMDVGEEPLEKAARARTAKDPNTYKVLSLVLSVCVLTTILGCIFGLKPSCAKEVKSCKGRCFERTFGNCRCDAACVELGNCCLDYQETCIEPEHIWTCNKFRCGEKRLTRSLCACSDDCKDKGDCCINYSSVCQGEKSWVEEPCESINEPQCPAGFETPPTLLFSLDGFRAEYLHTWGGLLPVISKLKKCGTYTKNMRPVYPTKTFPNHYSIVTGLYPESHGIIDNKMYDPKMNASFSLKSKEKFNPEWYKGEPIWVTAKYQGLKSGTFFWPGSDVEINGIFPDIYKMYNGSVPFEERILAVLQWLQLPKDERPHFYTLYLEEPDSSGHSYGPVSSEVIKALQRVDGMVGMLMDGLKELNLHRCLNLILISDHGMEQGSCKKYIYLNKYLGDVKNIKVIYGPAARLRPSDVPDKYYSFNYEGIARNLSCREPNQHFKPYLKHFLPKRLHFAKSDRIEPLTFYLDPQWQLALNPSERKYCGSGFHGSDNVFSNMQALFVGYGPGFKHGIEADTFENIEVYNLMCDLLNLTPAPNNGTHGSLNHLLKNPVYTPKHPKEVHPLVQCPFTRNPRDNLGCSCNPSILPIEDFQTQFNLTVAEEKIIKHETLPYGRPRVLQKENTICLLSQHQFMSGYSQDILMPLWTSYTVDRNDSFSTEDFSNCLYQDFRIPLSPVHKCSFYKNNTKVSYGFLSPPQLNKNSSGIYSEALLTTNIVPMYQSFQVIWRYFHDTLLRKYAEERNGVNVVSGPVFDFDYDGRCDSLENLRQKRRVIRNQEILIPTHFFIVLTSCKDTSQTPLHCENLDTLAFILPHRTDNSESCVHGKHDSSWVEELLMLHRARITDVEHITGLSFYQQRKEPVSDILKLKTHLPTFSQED
The experiment can be described thus: ENPP1 enzyme assay with AMP-pNP substrate (hydrolysis of ATP analog). The gist of the method: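 Human recombinant ENPP1 (60 ng/well) with 300 µM AMP-pNP in 50 mM Tris-HCl pH 8.5, 250 mM NaCl, 0.5 mM CaCl2, 1 µM ZnCl2, 0.1% DMSO, 20 min at 37 °C.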

The target of experiment [2] is T1, ENPP1. In words: Indirect quantitation of 2',3'-cGAMP hydrolysis (AMP-Glo Assay kit).
The target of experiment [3] is T1, ENPP1. The experiment can be described thus: Substrate selectivity ratio, inhibition of cGAMP hydrolysis versus ATP hydrolysis. The settings on record: ratio Ki AMP-pNP / Ki cGAMP. As to the method:
The selectivity ratios for inhibition of cGAMP hydrolysis versus ATP hydrolysis were then calculated as follows: […]

Where [4] appears, read: AMP-pNP substrate (ATP analog), Ki from IC50 by Cheng-Prusoff, read-out: ENPP1 Inhibition _AMP-pNP: Ki.
The mark [5] stands for this setting: cGAMP substrate, Ki from IC50 by Cheng-Prusoff, read-out: ENPP1 Inhibition -cGAMP: Ki.

By Ki is commonly meant a measure of affinity in units of concentration, obtained from inhibition or displacement. Take `COc1ccc2c(-c3ccc(CNS(N)(=O)=O)cn3)ccnc2c1` [Example 387, ((6-(7-methoxy quinolin-4-yl)pyridin-3-yl)methyl)sulfamide]: the values for the Ki at ENPP1 [1] (setting [4]) and on ENPP1 [2] (setting [5]) were over 1000 nM and under 100 nM, respectively. At ENPP1 [3], the “Substrate Selectivity: Ki_AMP-pNP/Ki_cGAMP” value (“Substrate Selectivity” for short) was found to be 36.
As to `COc1ccc2c(-n3cc(Cl)c4cc(NS(N)(=O)=O)ccc43)ccnc2c1` [Example 413, N-(3-chloro-1-(7-methoxyquinolin-4-yl)-1H-indol-5-yl)sulfamide], the Ki at ENPP1 [1] (setting [4]) was over 1000 nM; at ENPP1 [2] (setting [5]), 100 to 1000 nM. The “Substrate Selectivity” value on ENPP1 [3] is over 153.
Take `COc1cc2nccc(Oc3ccc(NS(N)(=O)=O)cc3F)c2cc1OC` [Example 201, N-(4-((6,7-dimethoxyquinolin-4-yl)oxy)-3-fluorophenyl)sulfamide]: the Ki on ENPP1 [1] (setting [4]) is 100 to 1000 nM; at ENPP1 [2] (setting [5]), under 100 nM. Also, on ENPP1 [3], the “Substrate Selectivity” value was over 19.9.
For the compound `COc1cc2nccc(N3CCC4(CC3)CCN(S(N)(=O)=O)C4)c2cc1OC` [Example 160, 8-(6,7-dimethoxyquinolin-4-yl)-2,8-diazaspiro[4.5]decane-2-sulfonamide], the Ki on ENPP1 [1] (setting [4]) and at ENPP1 [2] (setting [5]) was under 100 nM throughout. For the same compound, the “Substrate Selectivity” value at ENPP1 [3] stood at 13.9.
Turning to `COc1ccc2c(N3CCC(CCNS(N)(=O)=O)CC3)ncnc2c1` [Example 198, N-(2-(1-(7-methoxyquinazolin-4-yl)piperidin-4-yl)ethyl)sulfamide], the Ki at ENPP1 [1] (setting [4]) is 100 to 1000 nM; on ENPP1 [2] (setting [5]) it was under 100 nM. Besides, the “Substrate Selectivity” value at ENPP1 [3] came out at 39.2.
Turning to `COc1cc2nccc(Oc3cc(F)c(NS(N)(=O)=O)cc3F)c2cc1OC` [Example 258, N-(4-((6,7-dimethoxyquinolin-4-yl)oxy)-2,5-difluorophenyl)sulfamide], the Ki at ENPP1 [1] (setting [4]) is over 1000 nM; on ENPP1 [2] (setting [5]) it was under 100 nM. Also, at ENPP1 [3], the “Substrate Selectivity” value is reported as over 48.1.
The matching figures for `COc1ccc2c(Oc3ccc(NS(N)(=O)=O)c(F)c3)ccnc2c1` [Example 297, N-(2-fluoro-4-((7-methoxyquinolin-4-yl)oxy)phenyl)sulfamide]: 100 to 1000 nM, under 100 nM and 19.5.
With `COc1cc2ncnc(N3CCN(C(=O)CNS(N)(=O)=O)CC3)c2cc1OC` [Example 52, N-(2-(4-(6,7-dimethoxyquinazolin-4-yl)piperazin-1-yl)-2-oxoethyl)sulfamide], the values for the Ki on ENPP1 [1] and at ENPP1 [2] were 100 to 1000 nM and under 100 nM, respectively. For the same compound, the “Substrate Selectivity” value on ENPP1 [3] was found to be 58.1.
Turning to `COc1cc2ncc(F)c(N3CCC(CCNS(N)(=O)=O)CC3)c2cc1OC` [Example 66, N-(2-(1-(3-fluoro-6,7-dimethoxyquinolin-4-yl)piperidin-4-yl)ethyl)sulfamide], the inhibition constant (Ki) on ENPP1 [1] (setting [4]) and on ENPP1 [2] (setting [5]) was under 100 nM in each case. Besides, the “Substrate Selectivity” value on ENPP1 [3] is listed as 35.1.
Regarding `COc1cc2nccc(Oc3ccc(S(N)(=O)=O)cc3)c2cc1F` [Example 74, 4-((6-fluoro-7-methoxyquinolin-4-yl)oxy)benzenesulfonamide], the Ki at ENPP1 [1] (setting [4]) and on ENPP1 [2] (setting [5]) was under 100 nM throughout. In addition, on ENPP1 [3], the “Substrate Selectivity” value is on record as 22.5.
Take `NS(=O)(=O)N1CCc2ccc(-c3ncnc4ccccc34)cc2C1` [Example 150, 7-(quinazolin-4-yl)-3,4-dihydroisoquinoline-2(1H)-sulfonamide]: the Ki is over 1000 nM on ENPP1 [1] (setting [4]) and 100 to 1000 nM at ENPP1 [2] (setting [5]). The “Substrate Selectivity” value on ENPP1 [3] is given as over 158.
The matching figures for `COc1ccc2c(-c3ccc4c(c3F)CN(S(N)(=O)=O)CC4)ccnc2c1` [Example 410, 8-fluoro-7-(7-methoxyquinolin-4-yl)-3,4-dihydroisoquinoline-2(1H)-sulfamide]: 100 to 1000 nM, under 100 nM and over 42.
The matching figures for `COc1ccc2c(N3CCC4(CC3)CCN(S(N)(=O)=O)C4)ccnc2c1` [Example 363, 8-(7-methoxyquinolin-4-yl)-2,8-diazaspiro[4.5]decane-2-sulfonamide]: 100 to 1000 nM, under 100 nM and 49.
The matching figures for `N#Cc1cnc2ccccc2c1N1CCC2(CC1)CCN(S(N)(=O)=O)C2` [Example 167, 8-(3-cyanoquinolin-4-yl) -2,8-diazaspiro [4.5] decane-2-sulfonamide]: 100 to 1000 nM, under 100 nM and 10.6.
As for `COc1ccc2c(NCc3ccc(S(N)(=O)=O)cc3)ncnc2c1` [Example 230, 4-(((7-methoxyquinazolin-4-yl)amino)methyl)benzene sulfonamide], the Ki on ENPP1 [1] (setting [4]) and on ENPP1 [2] (setting [5]) was under 100 nM in each case. The “Substrate Selectivity” value at ENPP1 [3] was found to be 71.2.
Consider `COc1cc2nccc(Oc3ccc(NS(N)(=O)=O)cc3)c2cc1OC` [Example 125, N-(4-((6,7-dimethoxyquinolin-4-yl)oxy)phenyl)sulfamide], for which the Ki at ENPP1 [1] (setting [4]) is over 1000 nM; at ENPP1 [2] (setting [5]), under 100 nM. In addition, on ENPP1 [3], the “Substrate Selectivity” value was over 562.
For `COc1ccc2c(Oc3ccc(S(N)(=O)=O)cc3)ncnc2c1` [Example 356, 4-((7-methoxyquinazolin-4-yl)oxy)benzene sulfonamide], in that order: 100 to 1000 nM, under 100 nM and 40.
The matching figures for `COc1ccc2ncnc(NC(C)c3ccc(NS(N)(=O)=O)cc3)c2c1` (stereo not drawn) [Example 299, N-(4-(1-((6-methoxyquinazolin-4-yl)amino)ethyl)phenyl)sulfamide]: over 1000 nM, under 100 nM and over 45.9.
For `COc1cc2nccc(N3CCCc4cc(NS(N)(=O)=O)ccc43)c2cc1OC` [Example 291, N-(6′,7′-dimethoxy-3,4-dihydro-2H-[1,4′-biquinolin]-6-yl)sulfamide], in that order: over 1000 nM, 100 to 1000 nM and over 126.
On to `COc1cc2c(N3CCC(CCNS(N)(=O)=O)CC3)ncnc2cc1F` [Example 184, N-(2-(1-(7-fluoro-6-methoxyquinazolin-4-yl)piperidin-4-yl)ethyl)sulfamide], for which the Ki was over 1000 nM on ENPP1 [1] (setting [4]) and 100 to 1000 nM at ENPP1 [2] (setting [5]). In addition, the “Substrate Selectivity” value on ENPP1 [3] is reported as over 18.0.
The matching figures for `COc1cc2ncnc(N3CCc4cc(NS(N)(=O)=O)ccc4C3)c2cc1OC` [Example 137, N-(2-(6,7-dimethoxyquinazolin-4-yl)-1,2,3,4-tetrahydroisoquinolin-6-yl)sulfamide]: 100 to 1000 nM, under 100 nM and 22.4.
The matching figures for `COc1cc2nccc(N3CCC(CCNS(=O)(=O)NC(C)=O)CC3)c2cc1OC` [Example 203, N-(N-(2-(1-(6,7-dimethoxyquinolin-4-yl)piperidin-4-yl)ethyl)sulfamoyl)acetamide]: over 1000 nM, 100 to 1000 nM and over 33.7.
The matching figures for `COc1ccc2c(-c3ccc4c(c3)CN(S(N)(=O)=O)CC4)ccnc2n1` [Example 365, 7-(7-methoxy-1,8-naphthyridin-4-yl)-3,4-dihydroisoquinoline-2(1H)-sulfonamide]: 100 to 1000 nM, under 100 nM and 18.
